Reference: patent US9809640B2, “ApoE peptide dimers and uses thereof” (priority 2010, dated 2017)
Starred links: 1 amine or outer side, 2 acyl side, 3 side chain; linkers in the order of their positions; H or OH if unused. Positions of bridges follow the written chain, without caps; N, C: chain ends. Chains are numbered I, II in the order given. BMOE = O=C1CC([*:1])C(=O)N1CCN1C(=O)CC([*:2])C1=O

Key:
[1] = Mouse toxicity, maximum tolerated dose by intravenous injection; conditions: in vivo, maximum dose by intravenous injection without deaths after 24 hrs
From the text: (§1) We also evaluated the various peptides for efficacy in suppressing nitric oxide production induced by LPS stimulation of BV2 microglia cells as a measure of anti-inflammatory activity as well as the maximum dose tolerated in mice (Table I and FIG. 6A). For the LPS assay, EC50 is the concentration of compound that caused a 50% suppression of nitric oxide release from BV2 cells following LPS stimulation. For mouse toxicity, MTD is the maximum dose of the compound that can be given by intravenous injection without causing deaths after 24 hrs. […] Coupling the ApoE domain to a protein transduction domain further enhanced the potency of the dimers.

[2] = test system: IL-6; experiment: LPS-induced IL-6 production in BV2 microglia; format: cell-based; conditions: BV2 cells
Protocol: (§2) FIG. 1. […] Compounds were added to the final concentrations indicated on the graph along with 100 ng/mL of LPS. After 24 hours the media was removed and assayed by two-site ELISA (BioSource) and quantitated relative to a standard curve on the same plate.
(§3) A series of fusion peptides with COG133 conjugated to a PTD were prepared by chemical synthesis.

[3] = test system: normal B-cells; experiment: Cytotoxicity on normal B-cells from volunteers; format: cell-based, human; conditions: normal B-cells from volunteers
From the text: (§5) Normal B-cells from volunteers and B-CLL cells from patients are isolated using the RosetteSep™ Human B Cell Enrichment Cocktail according to the manufacturer's instructions. This method depletes whole blood of T cells, monocytes, and NK cells using a proprietary antibody cocktail that cross-links unwanted cells in human whole blood to multiple red blood cells (RBCs) forming immunorosettes. This increases the density of the unwanted (rosetted) cells, such that they pellet along with the free RBCs when centrifuged over a buoyant density medium such as Ficoll-Paque®. This leaves the highly enriched B-cell or B-CLL cells at the interface between Ficoll and the plasma. The antibodies in the cocktail contain anti-CD14, anti-CD2 and anti-CD16 antibodies to remove T cells, monocytes, and NK cells, respectively. The purity of these B-cell and B-CLL preparations is then determined by flow cytometry. Preparations typically average less than 2% CD3+ T-cells and less than 0.5% CD14+ monocytes. In the case of B-CLL cell isolation, we routinely obtain preparations that contain less than 1.5% normal CD19+/CD5− B-cells using this method.

[4] = test system: B-CLL cells; experiment: Cytotoxicity on patient-derived B-CLL cells (MTS assay)
From the text: FIG. 5A: Dose response curves for COG449 cytotoxicity on CLL cells from 4 leukemia patients. Human CLL cells were isolated from blood samples and assayed for COG449 cytotoxicity. […] FIG. 5B: Dose response curves for COG445 on CLL cells from 7 patients or normal B-cells from 5 patients. Human CLL cells and PBMC were isolated and assayed for cytotoxicity of COG445.
Blood from CLL patients was collected and CD5+/CD19+ CLL cells were isolated using the RosetteSep™ Human B-Cell Enrichment Cocktail, according to the manufacturer's instructions, and treated with COG compounds. Compounds were applied to B-CLL cells (2.5×10^5 cells/well in a 96 well plate), after which the cells were treated for 72 hours.
Normal B-cells from volunteers and B-CLL cells from patients are isolated using the RosetteSep™ Human B Cell Enrichment Cocktail according to the manufacturer's instructions. This method depletes whole blood of T cells, monocytes, and NK cells using a proprietary antibody cocktail that cross-links unwanted cells in human whole blood to multiple red blood cells (RBCs) forming immunorosettes. This increases the density of the unwanted (rosetted) cells, such that they pellet along with the free RBCs when centrifuged over a buoyant density medium such as Ficoll-Paque®. This leaves the highly enriched B-cell or B-CLL cells at the interface between Ficoll and the plasma. The antibodies in the cocktail contain […] and anti-CD16 antibodies to remove T cells, monocytes, and NK cells, respectively. The purity of these B-cell and B-CLL preparations is then determined by flow cytometry.
For cytotoxicity assays, 3×10^6 CLL cells/well are cultured in 24 well tissue culture plates in 1.5 mL of Hybridoma SFM™ (Gibco, Long Island, N.Y.) as described by Levesque et al. (2001, 2003). All cultures are incubated at 37° C., 5% CO2 in air.

[5] = test system: BV2 microglia cells; experiment: LPS-induced nitric oxide production in BV2 microglia cells; format: cell-based
Protocol: FIG. 1. COG 112 inhibits LPS-induced production of inflammatory cytokines in BV2 microglia cells. Inhibition curves for COG112 in the production of NO (green squares), TNFα (red diamonds), and IL-6 (blue triangles) by BV2 microglia. Compounds were added to the final concentrations indicated on the graph along with 100 ng/mL of LPS. After 24 hours the media was removed and assayed by two-site ELISA (BioSource) and quantitated relative to a standard curve on the same plate.
FIG. 3. NO Inhibition curve for COG449. BV2 microglia were treated with COG449 at the final concentrations indicated on the graph, along with 100 ng/mL of LPS. After 24 hours the media was removed and assayed by two-site ELISA (BioSource) and quantitated relative to a standard curve on the same plate.
as §1
Low passage BV2 microglial cell cultures are maintained in 10% HI (Heat Inactivated) FBS DMEM media (supplemented with MEM NEAA (Non-Essential Amino Acids), sodium pyruvate and Pen-Strep) and continuously cultured until needed. To determine the IC50 values for NO production, peptides are added to BV2 cultures in 1% HI FBS DMEM media (supplemented with MEM NEAA and sodium pyruvate) at a range of final assay concentrations from 1.0 μM in 2 fold dilutions to 7.8 nM followed immediately by addition of LPS (100 ng/mL final concentration) as previously described (Laskowitz et al. (2001) Exp Neurol, Vol. 167(1): 74-85). After incubating for 18±1 hours, conditioned media is removed for analysis of nitrite (the stable oxidation product of released nitric oxide) by the Griess colorimetric assay (Promega). Remaining cells are assayed for viability in an MTT assay (Promega) and the nitrite assay values are normalized for each concentration using the percent viability of cells in the MTT assay. […] Typically, the absence of LPS exposure to BV2 cells results in levels below the limit of detection in our assays. Similarly, addition of any of the peptides up to 25 μM without LPS results in undetectable NO levels.

[6] = test system: BV2 cells; experiment: LD50 of COG112 (safety window versus suppression in BV2 cells); format: cell-based
Protocol: We have previously shown that the addition of a protein transduction domain (PTD), such as an antennapedia peptide, to the apoE-mimetic COG133 peptide (LRVRLASHLRKLRKRLL (SEQ ID NO: 3)) enhances its anti-inflammatory activity. A series of fusion peptides with COG133 conjugated to a PTD were prepared by chemical synthesis.

[7] = test system: TNFα; experiment: LPS-induced TNFα production in BV2 microglia; format: cell-based; conditions: BV2 cells
Protocol: as §2, §3

[8] = test system: Ramos cell line of Burkitt's lymphoma; experiment: Growth of Ramos cells in culture; format: cell-based; conditions: read-out: EC50 growth inhibition in culture
[9] = test system: PP2A; experiment: PP2A activity in 32D:BCR/Abl chronic myelogenous leukemia cells (PP2A immunoprecipitation assay); format: cell-based; conditions: 1 μM, 30 minutes
Protocol: FIGS. 4A-4B. The BMOE-linked dimer peptide COG449 activates PP2A in CML cells. FIG. 4A: 32D-BCR/Abl chronic myelogenous leukemia cells were treated with COG449 (1 μM), COG445 (1 μM) (disulfide-linked COG112 dimer) or no treatment, and the PP2A activity was measured. FIG. 4B: 32D:BCR/Abl cell cultures were treated with no compound, 1 μM COG449, or 5 μM FTY720 for 30 minutes followed by lysis in an NP40 lysis buffer. PP2A was immunoprecipitated and assayed with the PP2A Immunoprecipitation assay kit (Upstate) according to the manufacturer's directions.
To further evaluate the effect of COG449, we measured the ability of the stable dimerized COG449 compound to activate PP2A in 32D:p210^BCR/Abl chronic myelogenous leukemia cells. […] 32D:p210^BCR/Abl chronic myelogenous leukemia cells were treated with no compound, 1 μM COG449, or 5 μM FTY720. We observed a robust increase of approximately 45% relative specific activity (phosphate release/minute/unit protein) of PP2A upon treatment with COG449 alone when compared to the untreated control, and about 20% activation compared with FTY720 (FIG. 4B).

[10] = Cytotoxicity on normal B-cells from volunteers; format: cell-based, human; conditions: human, normal B-cells from volunteers
From the text: as §5

[11] = test system: breast cancer cell lines; experiment: Cytotoxicity in breast cancer cell lines by cell counting; format: cell-based, human; conditions: serum-free media, 24 hrs
Protocol: FIG. 28. Cytotoxic effects of COG449 in breast cancer cells. Cell lines were grown in serum-free media and COG449 as indicated for 24 hrs. Cellular proliferation was measured by cell counting. Cell number is represented relative to control, untreated cells.

[12] = Tolerability of COG449 by intravenous infusion; format: in vivo
[13] = test system: U87MG glioblastoma cells; format: cell-based; conditions: MTT
Protocol: FIG. 14A: Dose response curve of COG445 on proliferation of U87 (open circles) and MDA-MB-231 (filled circles) cells as measured by MTT reduction. FIG. 14B: Dose response curve of COG445 on proliferation of MDA-MB-231 cells as measured by cell count.
To determine whether ApoE peptide dimers were cytotoxic to other types of cancer, we evaluated the effect of three different ApoE BMOE-linked peptide dimers (COG449, COG492, COG493; see Table I) on the growth characteristics of U87MG glioblastoma cells. Various concentrations of COG449, COG492, COG493 or Sorafenib were used to treat U87MG glioblastoma cells and viable cells were quanititated using MTT. Sorafenib, which has previously been reported to be cytotoxic to glioblastoma cells (Yang et al. (2010) Mol Cancer Ther., Vol. 9(4):953-962), was used as a positive control.
Because COG445 inhibited Akt activation and downstream signaling, we examined the effects of COG445 on cellular proliferation. Adherent MB231 and U87 cells were grown for ˜24 hours in the presence of COG445 and cellular proliferation was measured by MTT reduction. […] Furthermore, COG445 inhibited MB231 cellular proliferation as determined by cell count (FIG. 14B). Approximately 6×10^4 cells were plated in growth media (RPMI+10% FBS) for 24-hours with increasing concentrations of COG445. […] However at concentrations ≧1 μM COG445, there appears to be a loss of cells. This is partially explained by decreased proliferation, although it is possible that the rate of cellular degradation was increased in the presence of COG445.

[14] = test system: CLL cells; conditions: 24 h
Protocol: We next sought to determine whether SET antagonism would destabilize Mcl-1. Destabilization of Mcl-1 by treatment with SET antagonists was evaluated by treating primary human CLL cells for 24 hr with the ApoE peptide dimer COG449 (a BMOE-linked dimer of COG112; see Example 2) and evaluating the level of Mcl-1 in the cells.

[15] = test system: MDA-231 cells; experiment: Combination treatment of MDA-231 cells (MTT); format: cell-based; conditions: sub-lethal doses, 48 hrs, greater than either compound alone
Protocol: FIG. 29. Combination treatment with COG449 and sorafenib or gefitinb on triple negative breast cancer (TNBC) cell line growth. MDA-231 cells were grown in the presence of COG449, sorafenib, or gefitinb at sub-lethal doses as indicated. After 48 hrs, live cells were quantified using the MTT assay. *** indicates p<0.001.
(§4) To begin assessment of the potential of combination therapies with COG449, we analyzed the effect of treating MDA-231 cells with sub-lethal doses of COG449 and the multi-kinase inhibitor Sorafenib or the EGFR inhibitor Gefitinib at concentrations below their ED50 doses. […] We also evaluated the effects of COG449 in vivo using xenograft experiments. To determine whether COG449 might be effective against TNBC tumors in xenografts, immune compromised NOD/SCID gamma-chain null (NSG) mice were injected with MDA-231 cells into their 4th mammary glands. Once tumors became palpable at around 10 days, tumors were treated by […] subcutaneous injection of COG449 at 10 mg/kg. At 28 days post-xenograft, daily intra-tumor injection of COG449 was initiated and continued until sacrifice (FIG. 30A). In order to use a more clinically relevant treatment paradigm, MDA-231 xenografted mice were treated 3-times a week with 1 mg/kg COG449 by intravenous injection (FIG. 30B).

[16] = test system: MDA-MB-231 xenografts; experiment: MDA-MB-231 TNBC xenografts in NSG mice; format: in vivo; conditions: both xenograft studies
Protocol: FIGS. 30A-30B. Inhibition of triple negative breast cancer (TNBC) tumor growth in xenografts with COG449 treatment. FIG. 30A: 4×10^6 MDA-MB-231 cells were injected with Matrigel into the 4th mammary glands of immune compromised mice and treated daily by subcutaneous injection of 10 mg/kg COG449 starting at day 10. FIG. 30B: 4×10^6 MDA-MB-231 cells were injected with Matrigel into the 4th mammary glands of immune compromised mice and treated by intravenous tail vein injection 3× week at 1 mg/kg starting at day 27 post injection. Tumor volume was determined by caliper measurement.
as §4, with “In order to use a more clinically relevant treatment paradigm, MDA-231 xenografted mice were treated 3-times a week with 1 mg/kg COG449 by intravenous injection (FIG. 30B).” left out

Substance: Ac-RQIKIWFQNRRMKWKKCLRVRLASHLRKLRKRLL-NH2 [COG112, RQIKIWFQNRRMKWKK-C-LRVRLASHLRKLRKRLL (SEQ ID NO: 1)]
- MTD at 24 h [1]: 28 mg/kg
- IC50 [2]: 12 nM
- EC50 [3]: > 20000 nM
- Fold Change ([4]; CLL EC50 relative to COG056 (rev133) = 1.0): 9.2
- EC50 ([4]; read-out: CLL EC50, B-CLL cells from patients, 72 hours, MTS assay): 1400 nM
- EC50 ([5]; 50% suppression of nitric oxide release from BV2 cells following LPS stimulation): < 1000 nM
- IC50 ([5]; BV2 cells, LPS 100 ng/mL, read-out: IC50 for NO production/release): 21 nM
- LD50 [6]: 7 µM
- safety window, LD50 versus effective suppression concentrations ([6]; versus 12-58 nM): > 120 fold
- IC50 [7]: 58 nM

Substance: I: Ac-RQIKIWFQNRRMKWKKCLRVRLASHLRKLRKRLL-NH2 / II: Ac-RQIKIWFQNRRMKWKKCLRVRLASHLRKLRKRLL-NH2 (linker I:17-II:17 via BMOE) [COG449, COG112-C-BMOE-C-COG112]
- MTD at 24 h [1]: 12 mg/kg
- EC50 [8]: 125 nM
- increase of relative specific activity of PP2A compared to untreated control [9]: approximately 45%
- EC50 at 72 h [10]: > 10000 nM
- cytotoxicity to breast cancer cell lines incl. MDA-231, MDA-468, HCC38 [11]: cytotoxic to all cell lines
- first adverse events ([12]; 20 mg/kg): mild edema in the front paws and lethargy
- adverse effects ([12]; intravenous infusion, 10-15 mg/kg): without any observed adverse effects
- cytotoxicity to U87MG cells [13]: cytotoxic
- EC50 [14]: ~110 nM
- cytotoxic effect in combination with Gefitinib [15]: robust cytotoxic effect
- cytotoxic effect in combination with Sorafenib [15]: robust cytotoxic effect
- cytotoxic effects in mice [16]: No cytotoxic effects
